These results are taken from patent US20230049350A1, “COMPOUNDS FOR TREATING BRAIN CANCER” (Purdue Pharmaceutical Products L.P., priority 2014, published 2023).

Like-named read-outs stand apart in the source and are kept apart here.

The subject of one assay is GBM12 cells. The assay can be described thus: Intracerebral luciferase-transfected GBM12 murine brain tumour model. Format: in vivo, athymic mice. The conditions noted are these: for median survival: IV weekly day +4, +11, +18, EDO-S101 60 mg/kg, bendamustine 50 mg/kg, controls 52 days. As for the experimental part: Therapeutic activity of EDO-S101 was determined in murine brain tumour models against GBM, based on tumour growth as determined by bioluminescence imaging and survival analysis as determined by Kaplan-Meier analysis.
Murine brain tumour models were created by intracerebral injection of 3×10^5 luciferase-transfected GBM12 cells in athymic mice under aesthesia using a stereotactic platform. GBM12 is a MGMT negative tumour cell line. Eight-week-old athymic mice underwent minimum 7 \-day acclimation/quarantine prior to surgery. Surgery was performed in a laminar flow hood under sterile conditions. Tylenol 300 mg/kg PO was given for analgesia 24 hours before the surgery continuing 48 hours postoperatively. Aesthesia was achieved by inhalation of 1-2% isoflurane. After the mouse became well anesthetized, it was placed in the Kopf stereotactic instrument. A small amount of BNP antibiotic cream (a mixture of Bacitracin, Neomycin and Polymyxin) was smeared on its eyes to prevent infection and corneal damage during surgery. A strip of soft fabric was placed over the mouse’s body and tail to prevent excessive heat loss during surgery. The scalp area was cleaned with a 2% solution of Betadine and dried with cotton tipped applicator. A midline sagittal incision was made in the scalp.
A small burr hole was drilled in the left skull with a surgical drill (Kopf) or a Dremel drill according to the coordinates (AP: 0.5 mm, LM: 2.5 mm) as determined by reference to the mouse brain atlas by Franklin and Paxinos. […] The mice were monitored post-operatively at least twice a day for 5 days or until recovery is complete. […]
After intracerebral injection of the GBM cells, all the mice were subjected to bioluminescence imaging (BLI) twice a week starting at day-4 post-intracerebral injection to monitor the real-time in vivo tumour growth. […] Peak luminescent signals were recorded 10 minutes after luciferin injection. Regions of interest encompassing the intracranial area of signal were defined using Living Image software (Xenogen, Alameda, CA), and the total photons/s/steradian /cm2 was recorded. […]

Assay [1] deals with MB-468 breast cancer cells. Description: Murine model for metastatic breast cancer of the brain, intracerebral MB-468. Format: in vivo, mice. The conditions noted are these: MB-468 intracerebral; for median survival: single iv dose day +4, EDO-S101 60 mg/kg, bendamustine 50 mg/kg, controls 55 days. As for the experimental part: The procedure of Example 3 was repeated, except the murine models were created with 1×10^5 luciferase-transfected MB-468 breast cancer cells to create a […]. EDO-S101 (60 mg/kg body weight), bendamustine (50 mg/kg body weight) and control was administered intravenously via a tail vein to separate groups of the test mice in a single dose on day +4 post intracerebral implantation of the MB-468 breast cancer cells. […] EDO-S101 therefore appears to be a particularly promising treatment for metastatic brain cancer.

For a further assay, the system named is NCI-60 cell lines. Conditions: read-out: median IC50 value; cited from earlier work.
In a further assay the test system is U251MG. The assay can be described thus: GBM cell line viability IC50, U251. The conditions noted are these: Homo sapiens, U-251. Format: cell-based. As for the experimental part: (§1) In vitro experiments were devised in which a series of GBM cell lines representative for MGMT negative and MGMT positive tumour cells were used.
(§2) Compounds: 1-100 µM EDO-S101, 1-50 µM temozolomide (TMZ), 1-50 µM temozolomide + 500 nM vorinostat, 1-40 µM bendamustine, 1-40 µM bendamustine and 500 nM vorinostat.
Twelve glioblastoma cell lines representing grade III and IV gliomas and with different expression of MGMT, drug and radiotherapy sensitivity and five patient derived glioblastoma stem, cells were used (see above). […] Spheres were counted 5 days after treatment under an inverted microscope at ×4 magnification. A sphere was counted if it had at least 15 cells.
Cells were seeded at a density of 2 × 10^4 cells/ml in 24 well plates. […] Cells trypsinized and resuspended in 1.0 ml of saline were counted using the NucleoCounterTM NC-100 (automated cell counter systems, Chemotec, Cydevang, DK) in order to evaluate cell viability. […] IC50 values were calculated by the GraFit method (Erithacus Software Limited, Staines, UK). Cell viability was measured with the 3-(4,5 dimethylthiazol-2-yl)-2,5-diphenyl tetrazolium bromide (MTT; Sigma-Aldrich) assay.
(§3) IC50 and IC20 values for all twelve cell lines against bendamustine and vorinostat were also determined as described above. […]

The test system of a further assay is T98G. The assay can be described thus: GBM cell line viability IC50, T98G. Format: cell-based. On the procedure: as §1, §2
Twelve glioblastoma cell lines representing grade III and IV gliomas and with different expression of MGMT, drug and radiotherapy sensitivity and five patient derived glioblastoma stem, cells were used (see above). Four patient-derived glioblastoma stem cells, kindly provided from J. Gregory Cairncross, and Samuel Weiss at the Hotchkiss Brain Institute, Faculty of Medicine, University of Calgary, Calgary, Alberta, Canada and one luciferase transfected, PTC#8, from Prof Angelo Vescovi, University la Bicocca, Milan were cultured in defined culture serum free medium (SFM) and in non-adherent spheres culture. Cells were resuspended in DMEM/F12 media without serum supplemented with 20 ng/ml epidermal growth factor (Sigma-Aldrich), 20 ng/ml basic fibroblast growth factor (Sigma-Aldrich), B-27 supplement 1X (Gibco, Life Technologies), and antibiotics. Treatment with EDO-S101 was added straight after plating 3×10^3 cells in 96-well plates with the stem cells media. Spheres were counted 5 days after treatment under an inverted microscope at ×4 magnification. A sphere was counted if it had at least 15 cells.
Cells were seeded at a density of 2 × 10^4 cells/ml in 24 well plates. Cells were left to attach and grow in 5% FCS DMEM for 24 h. […] Cells trypsinized and resuspended in 1.0 ml of saline were counted using the NucleoCounterTM NC-100 (automated cell counter systems, Chemotec, Cydevang, DK) in order to evaluate cell viability. […] IC50 values were calculated by the GraFit method (Erithacus Software Limited, Staines, UK). Cell viability was measured with the 3-(4,5 dimethylthiazol-2-yl)-2,5-diphenyl tetrazolium bromide (MTT; Sigma-Aldrich) assay.
as §3

In general, IC50 refers to the concentration at which inhibition is half-maximal. As for `Cn1c(CCCCCCC(=O)NO)nc2cc(N(CCCl)CCCl)ccc21` [EDO-S101], the “tumour growth (bioluminescence imaging)” value in the assay on GBM12 cells (IV 60 mg/kg day +4, +11, +18) was “suppression of tumour growth”. For the same compound, the figures for the median survival (in the assay on GBM12 cells; in assay [1]) were 66 days and 71 days, respectively. Moreover, the tumour growth result in assay [1] (single iv dose 60 mg/kg day +4) was “suppression of tumour growth”. Moreover, the IC50 with NCI-60 cell lines is 2.2 µM.

Consider `Cn1c(CCCC(=O)O)nc2cc(N(CCCl)CCCl)ccc21` [bendamustine], for which the IC50 was 30 µM in the assay on U251MG; 52 µM in the assay on T98G (Homo sapiens, T98G); 72 µM with NCI-60 cell lines. The median survival in the assay on GBM12 cells is 58 days; in assay [1], 62 days.

As for `Cn1nnc2c(C(N)=O)ncn2c1=O` [temozolomide], the IC50 with U251MG (MGMT negative U251MG glioblastoma cell line, read-out: IC50) is 20 µM; in the assay on T98G (Homo sapiens, MGMT positive T98G glioblastoma cell line, read-out: IC50) it was above 100 µM; with T98G (T98G, MGMT pos., no unit in Table 2 (µM), read-out: IC50), above 100 µM.
